For data set [1], the system named is MCF-7 human mammary tumor cells. The experiment in a line: inhibition of growth of MCF-7 cells (tritiated thymidine incorporation). Particulars: for IC30 for inhibition of growth: MCF-7, 24 hours drug exposure; for fold increase in the cancer growth inhibition potency of paclitaxel: MCF-7, anthracycline at IC30 concentration. On the technique in general: Dividing cells build labelled thymidine or BrdU into new DNA.
Method: (§1) The inhibitory effects of doxorubicin (I), 13-deoxydoxorubicin (II), 5-imino-13-deoxydoxorubicin (III), daunorubicin (IV), 13-deoxydaunorubicin (V), and 5-imino-13-deoxydaunorubicin (VI) on the growth of MCF-7 human mammary tumor cells and P388 murine leukemia cells are measured in vitro. The MCF-7 and P388 cell lines used for these studies are cultured and maintained utilizing the protocol from the American Type Culture Collection (ATCC) protocols. MCF-7 media was EMEM (Eagle Minimum
(§2) Essential Medium; ATCC) and P388 media is Dulbecco's modified Eagle's medium (DMEM, ATCC). Working media for MCF-7 and P388 is made by the addition of 50 ml FBS (fetal bovine serum, MCF-7) or 50 ml horse serum (ATCC, P388) to 450 ml EMEM media (MCF-7) or DMEM (P388). 4.5 g/L glucose (Sigma) is also added to the DMEM (P388). Five ml Penicillin/Streptomycin (P/S, Gibco) is added to the MCF-7 and P388 working media. Cells are grown at 37° C. in 5% CO2 for 1 week, and 25 ml fresh media is added. Cells are passaged when they reach a density of 1-2×10^6 cells/ml by transferring to a new flask containing fresh media.
(§3) Using sterile technique, MCF-7 cells are harvested from the T-75 flasks by removing and discarding the culture medium. 5 ml of 0.25% Trypsin-EDTA solution (Sigma) is added to each flask to de-attach the cells. The flask is placed in the incubator for 5-10 minutes to facilitate dispersal. 10 ml of complete growth medium is added, directly decanted into 50 ml tubes then centrifuged for 10 minutes at 200×g. P388 cells are harvested by directly decanting media into 50 ml tubes and centrifuging for 10 minutes at 200×g. The pellet (MCF-7 and P388) is resuspended in 5 ml and the cells dispersed by expelling gently through an 18 g needle fitted to a syringe. The cells are counted using a hemocytometer and diluted with media to 150,000 cells/ml. The diluted cells are pipetted into 96-well plates at a concentration of 15,000 cells/well in 100 μl. The plates are covered and incubated at 37° C. for 48 hours.
(§4) Dilutions of the anthracyclines and paclitaxel are made up in cell-specific serum-free media. The drugs at appropriate concentrations are added to all wells in 50 μl aliquots and the cells are grown in the presence of the drugs (anthracyclines/paclitaxel) for 24 hours. Tritiated thymidine (ICN) is diluted in serum-free cell-specific media to a concentration of 1 μCi/50 μl. All wells used for analysis are spiked with 50 μl aliquots of media containing tritiated thymidine. Following a 4-hour exposure to isotope, tritiated thymidine incorporation into DNA is measured by hypotonic lysis of cells with deionized water and collection of cellular contents onto Whatman GF-C filters using a Brandel cell harvester. Prior to harvesting MCF-7 cells, the media is aspirated, 150 μL of 0.25% Trypsin-EDTA is added to each well to de-attach the cells. Filters are allowed to dry, placed into 7 ml scintillation vials containing 5 ml scintillation cocktail and counted in a scintillation counter. In preliminary experiments, the concentrations of anthracyclines that would produce a 30% inhibition of growth (inhibitory concentration 30, IC30) on MCF-7 cells and 10% inhibition of growth (IC10) on P388 cells are determined.

Data set [2] concerns P388 murine leukemia cells. The experiment in a line: inhibition of growth of P388 cells in vitro (tritiated thymidine incorporation). Particulars: for IC10 for inhibition of growth: P388, 24 hours drug exposure.
Method: as §1, §2, §3, §4
The nature of data set [3]: cardiotoxicity evaluation in chronically treated rabbits (LVFS, hematocrit, isolated atria dF/dt, histopathology). Particulars: rabbit; for cardiotoxicity with chronic dosing / HCT % (hematocrit), Post / Histopathology Score / dF/dt (myocardial contractility of isolated atria) / FS % (left ventricular fractional shortening), Post: in vivo; for HCT % (hematocrit), Post / FS % (left ventricular fractional shortening), Post: iv. Here is the method: Twenty-four age matched New Zealand white rabbits weighing 3.0 kg are randomized into four groups (N=6 rabbits/group). […] Doses of drug or vehicle are administered iv into an ear vein two times per week. Serum and blood samples are obtained weekly and M-mode echocardiology performed weekly or every other week to obtain left ventricular fractional shortening (LVFS) to assess cardiac function. Food consumption is measured daily and body weight is measured weekly. Control rabbits are fed the same amount of food as doxorubicin treated rabbits (pair fed). At sacrifice, apex and left ventricular free wall samples are obtained and preserved in 10% buffered formalin for histologic scoring and analysis via light microscopy. Left ventricular tissue samples are also obtained to assess cardiac levels of anthracyclines and metabolites.
At sacrifice, the heart is removed and two types of tissue are sampled from the heart, ventricular apex and left ventricular free wall, and stored in 10% formalin. Each tissue is prepared for three different stains: H&E, toluidine blue, and trichcrome. The tissues are scored (blind) using a modification of the Billingham scale. The scoring scale is from 0-4 with 0=<10% of cells or tissue lesioned, 1 to 10%-19% of cells or tissue lesioned, 2 to 20%-29% of cells or tissue lesioned, 3 to 30%-39% of cells or tissue lesioned, 4 to 40% or more cells or tissue lesioned. The ventricular apex and the left ventricular free wall are analyzed separately. Each receives a score for mononuclear infiltration, fibrosis, and cytoplasmic vacuolization. Thus, each rabbit has six scores, three for the apex (mononuclear infiltration, fibrosis, and cytoplasmic vacuolization) and three for the left ventricular free wall (mononuclear infiltration, fibrosis, and cytoplasmic vacuolization). Each score is obtained by looking at all three stains.
Also at sacrifice, left atria are isolated, divided in half and both halves studied to assess cardiac function in vitro in a tissue bath where afterload and preload remain constant throughout the study. Cardiac contractility is measured as the maximum rate of force development (dF/dt) in response to contractions induced by electrical stimulation via punctuate electrodes located at the base of each muscle preparation.

The subject of another data set is P388 murine leukemia. The experiment in a line: in vivo anticancer activity in murine leukemia model, CD2F1 mice injected with P388 cells. Particulars: for Median survival time: 1 million P388 cells ip; for T/C % (median survival time of treated mice divided by that of control mice x 100): P388 ip. Here is the method:
Groups of CD2F1 mice are injected intraperitoneally (ip) with 1 million P388 cells. There were 10 mice per group. In the doxorubicin group 0.8 mg/kg is administered ip consecutively for 9 days on days 1-9 of the study. […] A control group is injected with vehicle. Median survival times are calculated for each group. Activity of a compound is expressed as the amount of prolonged survival (median survival of the treated group divided by the median survival time of the control group, multiplied by 100, T/C %).

Data set [4] in a line: optimum antitumor dose relative to doxorubicin. The settings on record: in vivo.
The test system of a further data set is H9c2 cells. In words: growth inhibition of non-cancerous H9c2 cells. In kind it is cell-based. Particulars: Rattus norvegicus.
The next data set concerns breast cancer. The settings on record: breast cancer patients; cited from earlier work.
Setting [5] is: H9c2, H9c2, anthracycline alone.
Setting [6] is: H9c2, H9c2, in the presence of weak growth inhibitory concentrations of paclitaxel (IC10).

Structures are written as SMILES. “Also recorded” adds a separate entry of the source. Marks after values point to notes of the source that are not given here.

We go through 7 compounds from US8158591B2, “Anticancer treatment with a combination of taxanes and 13-deoxyanthracyclines” (Gem Pharmaceuticals, LLC, priority 2006, dated 2012).

The IC50 is the point on the concentration scale where inhibition reaches its midpoint.

With `COc1cccc2c1C(=O)c1c(O)c3c(c(O)c1C2=O)C[C@@](O)(CCO)C[C@@H]3OC1CC(N)C(O)C(C)O1` (stereo partly drawn) [Compound II, 13-deoxydoxorubicin], in data set [1], the “IC30 for inhibition of growth” value is recorded as 450 nM and the “fold increase in the cancer growth inhibition potency of paclitaxel” value is recorded as 20 fold. For the same compound, in data set [2], the “IC10 for inhibition of growth” value came to 1100 nM. In data set [3], the “cardiotoxicity with chronic dosing” value was “devoid of cardiotoxicity” and the “HCT % (hematocrit), Post” value is recorded as 23.8* %. Besides, in the data set with P388 murine leukemia (drug ip on days 1-9, n = 10), the Median survival time worked out at 27 days and the “T/C % (median survival time of treated mice divided by that of control mice x 100)” value is listed as 142* %. In the data set with P388 murine leukemia (drug ip on days 1-9, n = 10, listed as 13-deoxydoxorubicin), the Median survival time result is listed as “significant increase in median survival time”. Moreover, the “optimum antitumor dose relative to the dose of doxorubicin” value in data set [4] is “approximately twice”. In the data set with H9c2 cells (setting [5]), this compound registered an IC50 of 700 nM. In addition, in the data set on H9c2 cells (setting [6]), the IC50 stood at 400 nM.
With `COc1cccc2c1C(=N)c1c(O)c3c(c(O)c1C2=O)C[C@@](O)(CCO)C[C@@H]3OC1CC(N)C(O)C(C)O1` (stereo partly drawn) [Compound III], in data set [1], the “IC30 for inhibition of growth” value amounted to 750 nM and the “fold increase in the cancer growth inhibition potency of paclitaxel” value is given as 220 fold. The “IC10 for inhibition of growth” value in data set [2] was found to be 3500 nM. Besides, in data set [3], the “cardiotoxicity with chronic dosing” value is reported as “devoid of cardiotoxicity” and the “HCT % (hematocrit), Post” value is listed as 33.3* %. Besides, in the data set with P388 murine leukemia (drug ip on days 1-9, n = 10), the Median survival time was determined as 27 days and the “T/C % (median survival time of treated mice divided by that of control mice x 100)” value is reported as 142* %. Moreover, the “optimum antitumor dose relative to the dose of doxorubicin” value in data set [4] is listed as “up to 7 times”. Besides, half-maximal inhibition in the data set on H9c2 cells (setting [5]) (IC50) was put at 1500 nM. In addition, in the data set on H9c2 cells (setting [6]), the half-inhibitory concentration (IC50) came to 210 nM.
On to `CC[C@]1(O)Cc2c(O)c3c(c(O)c2[C@@H](OC2CC(N)C(O)C(C)O2)C1)C(=O)c1c(OC)cccc1C3=O` (stereo partly drawn) [Compound V, 13-deoxydaunorubicin], for which the “IC30 for inhibition of growth” value in data set [1] worked out at 645 nM. In addition, the “IC10 for inhibition of growth” value in data set [2] is 700 nM.
In the case of `CC[C@]1(O)Cc2c(O)c3c(c(O)c2[C@@H](OC2CC(N)C(O)C(C)O2)C1)C(=N)c1c(OC)cccc1C3=O` (stereo partly drawn) [Compound VI], the “IC30 for inhibition of growth” value in data set [1] is 875 nM. Moreover, the “IC10 for inhibition of growth” value in data set [2] is recorded as 1700 nM.
Regarding `COc1cccc2c1C(=O)c1c(O)c3c(c(O)c1C2=O)C[C@@](O)(C(C)=O)C[C@@H]3OC1CC(N)C(O)C(C)O1` (stereo partly drawn) [Daunorubicin (IV), daunorubicin], the “IC30 for inhibition of growth” value in data set [1] is 750 nM. The “IC10 for inhibition of growth” value in data set [2] amounted to 300 nM.
Consider `COc1cccc2c1C(=O)c1c(O)c3c(c(O)c1C2=O)C[C@@](O)(C(=O)CO)C[C@@H]3OC1CC(N)C(O)C(C)O1` (stereo partly drawn) [Doxorubicin (I), doxorubicin], for which, in data set [1], the “IC30 for inhibition of growth” value was found to be 100 nM and the “fold increase in the cancer growth inhibition potency of paclitaxel” value was determined as 2.8 fold. The “IC10 for inhibition of growth” value in data set [2] is recorded as 250 nM. The anticancer response rate with breast cancer is recorded as 35-50%. In data set [3] (New Zealand white), the “Histopathology Score” value is listed as 1.81*,^+; the “dF/dt (myocardial contractility of isolated atria)” value is recorded as 15.1*,^+ gms/sec; the “FS % (left ventricular fractional shortening), Post” value is recorded as 27.4*,^+ %. In data set [3] (1.25 mg/kg twice/week for 7 weeks), the cumulative cardiotoxic dose worked out at 17.5 mg/kg. In data set [3], the “Histopathology Score” value is given as “significantly increased”; the “cardiotoxicity with chronic dosing” value is on record as “profound cardiotoxicity”; the “dF/dt (myocardial contractility of isolated atria)” value is “significantly reduced”; the “FS % (left ventricular fractional shortening), Post” value is “statistically significant decrease”. In data set [3], the “HCT % (hematocrit), Post” value is 27.5* %. In the data set with P388 murine leukemia (drug ip on days 1-9, n = 10), the Median survival time came out at 28 days and the “T/C % (median survival time of treated mice divided by that of control mice x 100)” value was 147* %. Also, the “T/C % (median survival time of treated mice divided by that of control mice x 100)” value in the data set with P388 murine leukemia (drug ip on days 1-9, n = 10, listed as Doxorubicin) was determined as 147%. This compound had an IC50 in the data set with H9c2 cells (H9c2, anthracycline alone) of 210 nM.
In the case of `CC(=O)O[C@H]1C(=O)[C@@]2(C)[C@H]([C@H](OC(=O)c3ccccc3)[C@]3(O)C[C@H](OC(=O)[C@H](O)[C@@H](NC(=O)c4ccccc4)c4ccccc4)C(C)=C1C3(C)C)[C@]1(OC(C)=O)CO[C@@H]1C[C@@H]2O` [Paclitaxel, paclitaxel], the growth inhibitory effect entry is on record as “no growth inhibitory effect” in data set [1] (MCF7, paclitaxel alone, 1 to 50 nM) and “no growth inhibitory effect” in data set [2] (P388, paclitaxel alone, concentrations up to 2000 nM). Moreover, the “IC50 of paclitaxel for inhibition of growth” value in data set [2] (P388, paclitaxel alone or in the presence of the anthracycline at its IC10 concentration, mean ± standard error, n = 3) is listed as “no inhibitory activity; also recorded: Inactive”. In addition, the anticancer response rate with breast cancer is 32-62%.
